The structures appear in SMILES notation.

Broadly, the IC50 is the concentration that inhibits the measured activity by half. The low end stands for greater potency, the high end for weaker potency. By half-life is commonly meant the time in which the quantity being followed falls by half. Low values mean rapid decline, high ones slow decline. As a reminder, the CC50 is the concentration at which the toxic effect on the cells reaches its halfway point. Low readings indicate greater toxicity to the cells, high ones lower toxicity to the cells.

The subject of data set [1] is 'CCR5' cells / Hut/4-3 cells co-cultivation. The data set can be described thus: FIGS-Assay. It is filed as cell-based. The settings on record: 200 nM peptide, 48 hours of co-cultivation. As to the method:
The assay was performed according to ref. 5, below. Stock dilutions of the peptides (10 mM) were prepared by dissolving in 10 mM Tris-HCl at room temperature. Stock solutions were kept at +4° C., light protected. Working dilutions were prepared extemporaneously by serial dilution in Phosphate Buffered Saline (PBS) and added in a final volume of 10 μl directly to the cell cultures. After 48 hours of co-cultivation the cultures were rinsed with PBS and then exposed to glutaraldehyde/formaldehyde (0.2%/2%) in PBS for five minutes. For photometric quantification the fixed cultures were subsequently incubated with ortho-nitro-phenyl-galactopyranoside (ONPG) as a β-galactosidase substrate, which was enzymatically converted into the chromophore ortho-nitrophenol (ONP). The read out is directly obtained by measuring optical density of wells at 405 nm in an iEMS 96well-plate reader.
(§1) All fine chemicals came from Merck (Darmstadt, Germany).

Data set [2] relates to human red blood cells (hRBC). The data set can be described thus: Hemolysis. It is filed as cell-based. The method, boiled down:
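Washed fresh human erythrocytes (20% v/v, about 0.9×10^9 cells/ml final) incubated with peptide at 100 μM for 1 h at 37° C. Supernatant diluted 20-fold and OD540 read. Percent hemolysis relative to 0.1% Triton X-100 in H2O (100%), with PBS alone as 0%.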

Data set [3] deals with CCRF-CEM cells. The data set can be described thus: Chemotactic assay (cell migration assay). It is filed as cell-based. Particulars: 1 nM SDF-1, 4 hours. As to the method: as §1
2.7. Chemotactic Assay (Cell Migration Assay)
The chemotactic response of CCRF-CEM cells to a gradient of stromal cell-derived factor 1α (SDF-1) was measured using disposable assay plates from Neuroprobe (5μ pore size) (Gaithersburg, Md.), according to the manufacturer's directions and references therein [especially ref. 8, below]. Briefly, one 175 cm^2 flask was washed once with Dubecco's phosphate buffered saline (DPBS), and trypsinized for 10 minutes or until cells had lifted. The trypsin was neutralized by the addition of fresh medium containing serum and the cells were pelleted, washed once in DPBS, and resuspended at 1-0.5×10^7 cells/ml in RPMI+0.5% bovine serum albumin (BSA). 45 μl of cell suspension were mixed with 5 μl of 10-fold concentrated PEM peptide diluted in the same assay medium. […] The optical absorbance at 595 nm (ABS595) was read using a Tecan Genios plate reader with Magellan software. The number of cells migrated was determined by comparing ABS595 values against a standard curve generated with a known number of cells in the assay plate and were plotted against SDF-1 concentration to obtain a sigmoidal curve and to determine the IC50 values. The values for IC50 were determined using the Trendline function in Microsoft Excel by fitting a logarithmic curve to the averaged datapoints.

Data set [4] can be described thus: in vitro. Particulars: plasma. It is filed as in vitro ADME. As for the experimental part: 405 μl of plasma/albumin solution were placed in a polypropylene (PP) tube and spiked with 45 μl of compound from a 100 μM solution B, derived from 135 μl of PBS and 15 μl of 1 mM peptide in PBS, pH 7.4. 150 μl aliquots were transferred into individual wells of the 10 kDa filter plate (Millipore MAPPB 1010 Biomax membrane). For “0 minutes controls”: 270 μl of PBS were placed in a PP tube and 30 μl of stock solution B was added and vortexed. 150 μl of control solution was placed into one well of the filter plate and serves as “filtered control”.
Further 150 μl of control solution were placed directly into a receiver well (reserved for filtrate) and serve as “not-filtered control”. The entire plate including evaporation lid was incubated for 60 min at 37° C. Plasma samples (rat plasma: Harlan Sera lab UK, human plasma: Blutspendezentrum Zürich) were centrifuged at least for 2 h at 4300 rpm (3500 g) and 15° C. in order to yield 100 μl filtrate. For “serum albumin”-samples (freshly prepared human albumin: Sigma A-4327, rat albumin: Sigma A-6272, all at 40 mg/ml concentration in PBS) approximately 1 hour of centrifugation is sufficient. The filtrates in the receiver PP plate were analysed by LC/MS as followes: Column: Jupiter C18 (Phenomenex), mobile phases: (A) 0.1% formic acid in water and (B) acetonitrile, gradient: 5%-100% (B) in 2 minutes, electrospray ionization, MRM detection (triple quadrupole). The peak areas were determined and triplicate values are averaged. The binding is expressed in percent of the (filtered and not-filtered time point 0 min) control 1 and 2 by: 100−(100*T60/T0). The average from these values is then calculated (see ref. 9 below).

The nature of data set [5]: Cytotoxicity assay (MTT reduction), HELA cells.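 Further: MTT reduction read as absorbance at 595 nm, blank-corrected and expressed as percent growth relative to the time-zero cell reading, triplicate wells per concentration.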 The settings on record: human, HELA cells (Acc57). In general terms: Tetrazolium assays rely on reduction of a dye to a coloured formazan, in cell work by metabolically active cells.
Procedure: Each peptide concentration was assayed in triplicate. […] Wells were then washed once with PBS and subsequently 100 μl MTT reagent (0.5 mg/mL in medium RPMI1640 and, respectively, DMEM) was added to the wells. This was incubated at 37° C. for 2 hours and subsequently the medium was aspirated and 100 μl isopropanol was added to each well. […] For each concentration averages were calculated from triplicates. The percentage of growth was calculated as follows: (OD595peptide-OD595Tz-OD595Empty well)/(OD595Tz-OD595Empty well)×100% and was plotted for each peptide concentration.
‘CCR5’ cells were cultured in DMEM medium with 4500 mg/ml glucose, 10% fetal bovine serum (FBS), supplemented with 50 U/ml Penicillin and 50 μg/ml Streptomycin (Pen/Strept.). Hut/4-3 cells were maintained in RPMI medium, 10% FBS, supplemented with Pen/Strept. and 10 mM HEPES. HELA cells and CCRF-CEM cells were maintained in RPMI1640 plus 5% FBS, Pen/Strept and 2 mM L-Glutamine. Cos-7 cells were grown in DMEM medium with 4500 mg/ml glucose supplemented with 10% FCS, Pen/Strept. and 2 mM L-Glutamine. All cell lines were grown at 37° C. at 5% CO2.

As for `N=C(N)NCCC[C@@H]1NC(=O)[C@@H]2CSSC[C@H](NC(=O)[C@H](Cc3ccc4ccccc4c3)NC(=O)[C@H](CCCNC(=N)N)NC(=O)[C@H](CCCNC(=N)N)NC(=O)[C@H]3CCCN3C(=O)CNC1=O)C(=O)N[C@@H](Cc1ccc(O)cc1)C(=O)N[C@@H](CCCNC(N)=O)C(=O)N[C@@H](CCCCN)C(=O)N1CCC[C@@H]1C(=O)N1CCC[C@H]1C(=O)N[C@@H](Cc1ccc(O)cc1)C(=O)N[C@@H](CCCNC(=N)N)C(=O)N[C@@H](CCCNC(N)=O)C(=O)N2` [Ex. 51], the “FIGS % inhibition at 200 nM” value in data set [1] came to 93.9%. For the same compound, the Hemolysis at 100 μM in data set [2] was found to be 0%. Further, in data set [3], half-maximal inhibition (IC50) required 0.275 µM. The half-life at 10 μM in data set [4] (human) was 4.77 h; in data set [4] (rat), greater than 5 h. This compound had a CC50 at 48 h in data set [5] of 97 µM.
